Test results from BindingDB's records for doi:10.3109/14756360903049042 (Medical University of Bialystok, 2010).

Experiments:
[1] = biological target: Plasminogen (Homo sapiens, UniProt P00747); test: Amidolytic Activity Assay (Plasmin); conditions: pH 7.4
Procedure: Determination of amidolytic activity was performed as described previously [Okada et al., Chem. Pharm. Bull., 36:1289-1297]. Detailed description of the method is given below. To 0.2 cm3 of examined compound (1−11; 0.15 M NaCl as control), buffer, and 0.1 cm^3 of enzyme solution was added: tris buffer−0.5 cm^3 (pH = 7.4); enzyme: plasmin (0.4 unit/cm^3); synthetic substrate: S-2251 (0.2 cm^3, 3 mM/dm^3).

[2] = biological target: Serine protease 1 (Homo sapiens, UniProt P07477); test: Amidolytic Activity Assay (Trypsin); conditions: pH 7.5
Serine protease 1, sequence (P07477 whole entry): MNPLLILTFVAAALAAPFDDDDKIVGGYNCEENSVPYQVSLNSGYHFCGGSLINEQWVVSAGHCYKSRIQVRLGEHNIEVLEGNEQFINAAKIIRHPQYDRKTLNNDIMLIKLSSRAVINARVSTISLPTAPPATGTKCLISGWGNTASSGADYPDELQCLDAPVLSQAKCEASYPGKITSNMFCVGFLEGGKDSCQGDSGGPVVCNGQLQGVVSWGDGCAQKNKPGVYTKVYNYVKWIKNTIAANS
Procedure: Determination of amidolytic activity was performed as described previously [Okada et al., Chem. Pharm. Bull., 36:1289-1297]. Detailed description of the method is given below. […]

Plasminogen, sequence (P00747 97-580 limits assumed): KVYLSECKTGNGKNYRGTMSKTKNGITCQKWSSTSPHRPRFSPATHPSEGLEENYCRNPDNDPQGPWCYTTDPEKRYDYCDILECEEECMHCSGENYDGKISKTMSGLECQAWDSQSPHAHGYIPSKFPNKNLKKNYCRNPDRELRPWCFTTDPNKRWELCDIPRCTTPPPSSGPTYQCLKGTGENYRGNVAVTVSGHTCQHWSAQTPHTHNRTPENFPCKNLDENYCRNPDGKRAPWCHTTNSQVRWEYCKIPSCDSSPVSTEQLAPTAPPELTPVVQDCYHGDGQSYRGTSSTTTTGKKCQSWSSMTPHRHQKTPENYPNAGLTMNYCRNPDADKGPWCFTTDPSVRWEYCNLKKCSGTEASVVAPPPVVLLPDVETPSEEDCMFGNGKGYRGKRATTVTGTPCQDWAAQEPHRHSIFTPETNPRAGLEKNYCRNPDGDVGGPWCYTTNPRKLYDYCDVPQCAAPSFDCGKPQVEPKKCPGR
Plasminogen, sequence (P00747 581-810 limits assumed): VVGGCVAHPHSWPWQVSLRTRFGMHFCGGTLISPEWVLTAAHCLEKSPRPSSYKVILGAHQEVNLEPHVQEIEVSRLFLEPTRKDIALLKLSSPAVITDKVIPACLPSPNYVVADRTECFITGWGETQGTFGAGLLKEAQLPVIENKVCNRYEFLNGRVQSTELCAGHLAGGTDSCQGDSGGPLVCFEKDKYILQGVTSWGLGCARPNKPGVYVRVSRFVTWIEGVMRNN

SMILES | Ki [1] | Ki [2]
C[C@H](NC(=O)[C@H](N)CO)C(=O)N[C@@H](CCCNC(=N)N)C(=O)NCCCCCCCCCN [H-D-Ser-Ala-Arg-NH-(CH2)9-NH2 (8)] | 90 µM | 5 µM
C[C@H](NC(=O)[C@H](N)CO)C(=O)N[C@@H](CCCNC(=N)N)C(=O)NCCCCCN [H-D-Ser-Ala-Arg-NH-(CH2)5-NH2 (4)] | 37 µM | 
C[C@H](NC(=O)[C@H](N)CO)C(=O)N[C@@H](CCCNC(=N)N)C(=O)NCCCCCCCCN [H-D-Ser-Ala-Arg-NH-(CH2)8-NH2 (7)] |  | 10 µM
C[C@H](NC(=O)[C@H](N)CO)C(=O)N[C@@H](CCCNC(=N)N)C(=O)NCCCO [H-D-Ser-Ala-Arg-NH-(CH2)3-OH (10)] | 1090 µM | 15 µM
C[C@H](NC(=O)[C@H](N)CO)C(=O)N[C@@H](CCCNC(=N)N)C(=O)NCCCCO [H-D-Ser-Ala-Arg-NH-(CH2)4-OH (11)] | 545 µM | 10 µM
C[C@H](NC(=O)[C@H](N)CO)C(=O)N[C@@H](CCCNC(=N)N)C(=O)NCCCCCCCN [H-D-Ser-Ala-Arg-NH-(CH2)7-NH2 (6)] | 364 µM | 30 µM
C[C@H](NC(=O)[C@H](N)CO)C(=O)N[C@@H](CCCNC(=N)N)C(=O)NCCO [H-D-Ser-Ala-Arg-NH-(CH2)2-OH (9)] | 727 µM | 
C[C@H](NC(=O)[C@H](N)CO)C(=O)N[C@@H](CCCNC(=N)N)C(=O)NCCCCCCN [H-D-Ser-Ala-Arg-NH-(CH2)6-NH2 (5)] | 181 µM | 2.5 µM
